# Source: patent publication US11078170B2 (Assembly Biosciences, Inc., priority 2017, dated 2021)
# Test system: HBV viral production from HepAD38 cells
# Experiment: Activity of test compounds on viral production from HepAD38 cells (viral load by qPCR of HBV core sequence in supernatant)
# Format: cell-based
# Conditions: Hepatitis B virus, 120 h, 5 days incubation, HBV DNA in supernatant by qPCR, top concentration 10 μM, read-out: Viral Load EC50 Activity range
# Method in brief: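 EC50 and CC50 come from four-parameter fits of supernatant viral load and CellTiter-Glo viability, respectively. Viral load was measured by core-region TaqMan qPCR against HBV DNA standards and compared with DMSO controls. Tet-free HepAD38 cells (50,000/well, 2% FBS) were exposed to compound, highest 10 μM, for 5 days at 37° C.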
row,Structure (SMILES),EC50
1,"CN1[C@@H](C(=O)Nc2ccc(F)c(Cl)c2)C[C@@H](c2ccnn2C)NS1(=O)=O [HBV-CSU-054-ISO-I, Cis-N-(3-Chloro-4-fluorophenyl)-2-methyl-5-(1-methyl-1H-pyrazol-5-yl)-1,2,6-thiadiazinane-3-carboxamide 1,1-dioxide]",> 5000 nM
2,"CN1C(C(=O)Nc2ccc(F)c(Cl)c2)CC(c2cc(-c3ccnn3C)cs2)NS1(=O)=O (racemic) [HBV-CSU-289, Cis-N-(3-chloro-4-fluorophenyl)-2-methyl-5-(4-(1-methyl-1H-pyrazol-5-yl)thiophen-2-yl)-1,2,6-thiadiazinane-3-carboxamide 1,1-dioxide]",< 1000 nM
3,"CN1[C@H](C(=O)Nc2cc(F)c(F)c(F)c2)C[C@H](c2ccc(F)cc2)NS1(=O)=O [HBV-CSU-212-ISO-I, Cis-5-(4-Fluorophenyl)-2-methyl-N-(3,4,5-trifluorophenyl)-1,2,6-thiadiazinane-3-carboxamide 1,1-dioxide]",< 1000 nM
4,"CC(C)n1cc(-c2csc([C@H]3C[C@@H](C(=O)Nc4ccc(F)c(Cl)c4)N(C)S(=O)(=O)N3)c2)cn1 [HBV-CSU-295-ISO-I, Cis-N-(3-chloro-4-fluorophenyl)-5-(4-(1-isopropyl-1H-pyrazol-4-yl)thiophen-2-yl)-2-methyl-1,2,6-thiadiazinane-3-carboxamide 1,1-dioxide]",< 1000 nM
5,"CN1C(C(=O)Nc2ccc(F)c(Cl)c2)CC(c2cc(-c3cnn(CCO)c3)cs2)NS1(=O)=O (racemic) [HBV-CSU-296, Cis-N-(3-chloro-4-fluorophenyl)-5-(4-(1-(2-hydroxyethyl)-1H-pyrazol-4-yl)thiophen-2-yl)-2-methyl-1,2,6-thiadiazinane-3-carboxamide 1,1-dioxide]",1000 to 5000 nM
6,"CN1[C@H](C(=O)Nc2ccc(F)c(Cl)c2)C[C@@H](c2ccc(-c3cn(C)cn3)s2)NS1(=O)=O [HBV-CSU-266-Trans-ISO-II, (3S,5S)-N-(3-chloro-4-fluorophenyl)-2-methyl-5-(5-(1-methyl-1H-imidazol-4-yl)thiophen-2-yl)-1,2,6-thiadiazinane-3-carboxamide 1,1-dioxide]",1000 to 5000 nM
7,"[2H]C1C([2H])(c2ccc(Br)s2)NS(=O)(=O)N(C([2H])([2H])[2H])C1([2H])C(=O)Nc1ccc(F)c(Cl)c1 (stereo not drawn) [HBV-CSU-372, Cis-5-(5-bromothiophen-2-yl)-N-(3-chloro-4-fluorophenyl)-2-(methyl-d3)-1,2,6-thiadiazinane-3,4,5-d3-3-carboxamide 1,1-dioxide]",< 1000 nM
8,"CN1[C@H](C(=O)Nc2ccc(F)c(Cl)c2)C[C@H](c2ccc(-c3ccn(C)n3)s2)NS1(=O)=O [HBV-CSU-270-ISO-I, Cis-N-(3-Chloro-4-fluorophenyl)-2-methyl-5-(5-(1-methyl-1H-pyrazol-3-yl)thiophen-2-yl)-1,2,6-thiadiazinane-3-carboxamide 1,1-dioxide]",< 1000 nM
9,"CN(C)CCOc1ccc(C2CC(C(=O)Nc3ccc(F)c(Cl)c3)N(C)S(=O)(=O)N2)s1 (racemic) [HBV-CSU-188, Cis-N-(3-chloro-4-fluorophenyl)-5-(5-(2-(dimethylamino)ethoxy)thiophen-2-yl)-2-methyl-1,2,6-thiadiazinane-3-carboxamide 1,1-dioxide]",< 1000 nM
10,"COc1ccc(-c2cnc(C3CC(C(=O)Nc4ccc(F)c(Cl)c4)N(C)S(=O)(=O)N3)s2)cc1 (racemic) [HBV-CSU-250, Cis-N-(3-Chloro-4-fluorophenyl)-5-(5-(4-methoxyphenyl)thiazol-2-yl)-2-methyl-1,2,6-thiadiazinane-3-carboxamide 1,1-dioxide]",< 1000 nM
11,"CN1[C@H](C(=O)Nc2ccc(F)c(Cl)c2)C[C@H](C2CCCC2)NS1(=O)=O [HBV-CSU-222-ISO-I, Cis-N-(3-chloro-4-fluorophenyl)-5-cyclopentyl-2-methyl-1,2,6-thiadiazinane-3-carboxamide 1,1-dioxide]",< 1000 nM
12,"CN1[C@@H](C(=O)Nc2ccc(F)c(Cl)c2)C[C@@H](c2ccc(-c3ccc(C#N)c(F)c3)s2)NS1(=O)=O [HBV-CSU-156-ISO-II, Cis-N-(3-chloro-4-fluorophenyl)-5-(5-(4-cyano-3-fluorophenyl)thiophen-2-yl)-2-methyl-1,2,6-thiadiazinane-3-carboxamide 1,1-dioxide]",> 5000 nM
13,"[2H]C1[C@]([2H])(C(=O)Nc2ccc(F)c(Cl)c2)N(C)S(=O)(=O)N[C@]1([2H])c1ccc(-c2cn(C)cn2)s1 (stereo in doubt) [HBV-CSU-375-ISO-II, Cis-N-(3-Chloro-4-fluorophenyl)-2-methyl-5-(5-(1-methyl-1H-imidazol-4-yl)thiophen-2-yl)-1,2,6-thiadiazinane-3,4,5-d3-3-carboxamide 1,1-dioxide]",1000 to 5000 nM
14,"CN1[C@@H](C(=O)Nc2ccc(F)c(Cl)c2)C[C@@H](c2cc(-c3cncnc3)cs2)NS1(=O)=O [HBV-CSU-290-ISO-II, Cis-N-(3-chloro-4-fluorophenyl)-2-methyl-5-(4-(pyrimidin-5-yl)thiophen-2-yl)-1,2,6-thiadiazinane-3-carboxamide 1,1-dioxide]",1000 to 5000 nM
15,"CN1C(C(=O)Nc2ccc(F)c(Cl)c2)CC(c2nnc(-c3ccccc3)s2)NS1(=O)=O (racemic) [HBV-CSU-120, Cis-N-(3-Chloro-4-fluorophenyl)-2-methyl-5-(5-phenyl-1,3,4-thiadiazol-2-yl)-1,2,6-thiadiazinane-3-carboxamide 1,1-dioxide]",< 1000 nM
16,"CN1C(C(=O)Nc2ccc(F)c(Cl)c2)CC(c2cc(-c3ccc(Br)c(F)c3)cs2)NS1(=O)=O (racemic) [HBV-CSU-165, Cis-N-(3-chloro-4-fluorophenyl)-5-(4-(4-bromo-3-fluorophenyl)thiophen-2-yl)-2-methyl-1,2,6-thiadiazinane-3-carboxamide 1,1-dioxide]",1000 to 5000 nM
17,"CN1[C@H](C(=O)Nc2ccc(F)c(Cl)c2)C[C@H](c2cccc(-c3cnn(C)c3)c2)NS1(=O)=O [HBV-CSU-247-ISO-I, Cis-N-(3-chloro-4-fluorophenyl)-2-methyl-5-(3-(1-methyl-1H-pyrazol-4-yl)phenyl)-1,2,6-thiadiazinane-3-carboxamide 1,1-dioxide]",> 5000 nM
18,"[2H]C([2H])([2H])N1[C@@H](C(=O)Nc2ccc(F)c(Cl)c2)C[C@@H](c2ccc(Br)s2)NS1(=O)=O (relative stereo) [HBV-CSU-370-ISO-II, Cis-5-(5-bromothiophen-2-yl)-N-(3-chloro-4-fluorophenyl)-2-(methyl-d3)-1,2,6-thiadiazinane-3-carboxamide 1,1-dioxide]",1000 to 5000 nM
19,"CN1[C@H](C(=O)Nc2cccc(C#N)c2)C[C@H](c2cccs2)NS1(=O)=O [HBV-CSU-020-ISO-I, Cis-N-(3-cyanophenyl)-2-methyl-5-(thiophen-2-yl)-1,2,6-thiadiazinane-3-carboxamide 1,1-dioxide]",< 1000 nM
20,"CN1[C@H](C(=O)Nc2ccc(F)c(Cl)c2)C[C@H](c2ccc(-c3ccc(NS(C)(=O)=O)cc3)s2)NS1(=O)=O [HBV-CSU-163-ISO-I, Cis-N-(3-chloro-4-fluorophenyl)-2-methyl-5-(5-(4-(methylsulfonamido)phenyl)thiophen-2-yl)-1,2,6-thiadiazinane-3-carboxamide 1,1-dioxide]",< 1000 nM
21,"CN1[C@@H](C(=O)Nc2ccc(F)c(Cl)c2)C[C@@H](c2ccc(OCC(=O)O)cc2)NS1(=O)=O [HBV-CSU-216-ISO-II, Cis-2-(4-(5-((3-Chloro-4-fluorophenyl)carbamoyl)-6-methyl-1,1-dioxido-1,2,6-thiadiazinan-3-yl)phenoxy)acetic acid]",> 5000 nM
